Experimental data published in patent publication US10117873B2, “6-amino-purin-8-one compounds” (GlaxoSmithKline LLC, priority 2008, dated 2018).

What was measured:
Interferon-α [1] = test: Induction of Interferon-α using cryopreserved human PBMCs; type: cell-based; settings: PBMC, 24 h incubation, normalized to 1 uM resiquimod, read-out: mean pEC50 for induction of Interferon-α (converted)
Experimental: Assay for the Induction of Interferon-α Using Cryopreserved Human Peripheral Blood Mononuclear Cells (PBMCs)
Compounds were dissolved in DMSO. Serial 2-fold dilutions with DMSO were prepared and 0.25 μl dispensed into 384-well clear Greiner polypropylene plates.
Blood samples of up to 200 ml were obtained from healthy human donors. Whole blood in 25 ml volumes was overlaid onto 15 ml Ficoll® gradients in Leucosep® tubes, and centrifuged at 1000 g for 20 min. Cells in the band at the plasma/Histopaque® interface were carefully removed and washed twice with PBS (centrifuged at 400 g for 5 min to harvest). The final pellet was resuspended in freezing medium (90% Heat-inactivated serum, 10% DMSO) to a cell concentration of 4×10^7 cells/ml. The resuspended cells were then cryopreserved (frozen) using a rate controlled freezer, and stored at −140° C. for up to 4 months.
Immediately prior to assay, vials of cryopreserved (frozen) PBMCs were thawed rapidly in a water bath at 37° C. A 1:10 dilution of the cells in trypan blue was prepared and counted. The PBMCs were then diluted in growth media [RPMI 1640 containing 10% fetal calf serum (invitrogen), Penicillin+[…] (Gibco cat. #25030-024, 1:50), L-Glutamine 2 mM, and 1000 units/ml recombinant human IFN-gamma (Preprotech catalogue #300-02)] to a density of 1×10^6 cells/ml, and 50 ul/well dispensed to 384-well clear Greiner polypropylene plates containing 0.25 μl DMSO or test compound in 0.25 μl DMSO. […] Plates were incubated for 24 h at 37° C. in 5% CO2.
A multi-isoform immunoassay was used to quantify IFN-α in PBMC supernatants. Rabbit polyclonal antibody against human IFN-α (catalogue number 31101, Stratech Scientific) was diluted 1:10000 in assay buffer (RPMI 1640 containing 10% fetal calf serum, Invitrogen) and 20 μl was added to each well of an MSD® (Meso-Scale® Discovery) single small-spot 384-well GAR (goat anti-rabbit antibody coated) plate.
The plate was incubated for 1 h at room temperature with vigorous shaking. Following three washes with PBS, 20 μl of cell supernatant were added to each well of the plate. The plate was then incubated for 1 h at room temperature with vigorous shaking. A pair of monoclonal antibodies to IFN-α (catalogue numbers 21100 and 21112, Stratech Scientific) were labelled with sulfo-TAG (MSD®), diluted 1:1000 in assay buffer and 20 μl added to each well of the plate. The plate was further incubated for 1 h at room temperature with vigorous shaking. Following three washes with PBS, 30 μl of ×2 T buffer (MSD®) was added to each well and the plate was read on an MSD® Sector 6000 plate reader.
Data were normalized to internal plate controls of 1 uM resiquimod (n=16) and DMSO (n=16). pEC50 values were derived by 4-parameter curve fit with IRLS in ActivityBase, from 11-point, two-fold serial dilution of test compounds.

IFN-α = test: Induction of Interferon-α using fresh human PBMCs; type: cell-based; settings: PBMC, 24 hr incubation, relative to 2 μM resiquimod control, read-out: mean pEC50 for induction of IFN-α (converted)
Experimental: (§1) Assay for the Induction of Interferon-α and TNF-α Using Fresh Human Peripheral Blood Mononuclear Cells (PBMCs)
(§2) Compounds were dissolved and serially diluted in DMSO to give 100× the required concentration range using a Biomek® 2000. 1 ul of test compound was transferred into 96-well tissue culture plates using a Biomek® FX. Each compound was assayed in duplicate for each donor. Each plate contained a dilution series of the TLR7/8 agonist resiquimod as standard and Column 11 contained 1 μl of 200 μM resiquimod (giving a 2 μM final concentration, used to define the approximate maximal response to resiquimod).
(§3) Blood samples from two human donors were collected into sodium heparin (10 U/ml). 25 ml volumes of whole blood were overlaid onto 15 mls Histopaque® in LEUCOSEP™ tubes which were centrifuged at 800 g for 20 min and the band at the plasma/histopaque interface carefully removed. The collected cells were centrifuged at 2500 rpm for 10 min and the pellet resuspended in 10 ml of media (RPMI 1640 (Low endotoxin) supplemented with 10% v/v foetal calf serum (FCS, low endotoxin) 100 U/ml penicillin G, 100 μg/ml streptomycin, 10 mM L-glutamine and 1× non-essential amino acids). A 1:20 dilution of the cells was prepared using trypan blue & the cells counted using a haemocytometer. The PBMCs were diluted to give a final concentration of 2×10^6/ml and 100 ul of this cells suspension was added to wells containing 1 μl of diluted test compound.
(§4) The cell preparations were incubated for 24 hr (37° C., 95% air, 5% CO2) after which a sample of the supernatant was removed using the Biomek® FX and assayed for both IFN-α and TNF-α using the MSD® (Mesoscale Discovery) electrochemiluminescence assay platform. The IFN-α assay was carried out similarly to that described above. The TNF-α assay was carried out as per kit instructions (Cat No K111BHB).
(§5) Cytokine released was expressed as a percentage of the 2 μM resiquimod control (column 11). This percentage was plotted against compound concentration and the pEC50 for the response determined by non-linear least squares curve fitting. For the IFN-α responses generally a 4 parameter logistic model was selected. For the TNF responses where a clear maximum response was obtained (i.e. a well defined plateau in the response was observed) then a 4 parameter model was generally used. If the upper asymptote of the curve wasn't well defined then the curve fitting was generally constrained to a maximal response of 100% (i.e. to the response to 2 μM resiquimod) or to the response of the highest concentration tested if this was greater than the resiquimod response. Some curves were bell shaped for one or both cytokines and the cytokine data on the down slope of the bell shaped response (i.e. concentrations above those giving the maximal response) were generally excluded from the fit, usually with the exception of the concentration immediately above the peak response. Curve fitting thus concentrated on the up slope of the dose response curve.

TNF-α = test: Induction of TNF-α using fresh human PBMCs; type: cell-based; settings: PBMC, 24 hr incubation, relative to 2 μM resiquimod control, read-out: mean pEC50 for induction of TNF-α (converted)
Experimental: as §1, §2, §3, §4, §5

Interferon-α [2] = test: Induction of Interferon-α following intranasal dosing in the mouse; type: in vivo; settings: female BALB/c mice, serum 2 hours after dosing, ELISA
Experimental: Assay for the Induction of Interferon-α Following Intranasal Dosing in the Mouse.
Compounds were dissolved in 0.2% Tween™ 80 in saline and administered intranasally (5 μl in total between the nostrils) to female BALB/c mice (n=6) under general anaesthesia. Animals were euthanased 2 hours after dosing and a terminal blood sample was taken and serum levels of Interferon-α measured using an ELISA assay.

IL-5 = test: Allergen-driven cytokine assay using fresh human PBMCs from atopic volunteers (IL-5); type: cell-based; settings: at 0.04 μM, compared to the allergen control; PBMCs from three allergic donors, Timothy Grass antigen
Experimental: (§6) Allergen-Driven Cytokine Assay Using Fresh Human Peripheral Blood Mononuclear Cells (PBMCs) from Atopic Volunteers
(§7) An assay based on co-culture of atopic human donor derived peripheral blood mononuclear cells (PBMCs) with allergen and test compounds was developed. After 5-6 days culture, cell supernatants were assayed for a range of cytokines.
(§8) Each compound was assayed in triplicate at all concentrations.
(§9) Defibrinated human blood from volunteers known to be allergic to Timothy grass was centrifuged at 2500 rpm for 15 minutes. The upper layer of serum was collected and heat-inactivated at 56° C. for 30 minutes (HI-autologous serum). The lower layer of cells was resuspended in 50 ml PBS (+Ca+Mg), 25 ml diluted blood were overlaid onto 20 ml Lymphoprep in 50 ml tubes then centrifuged at 2500 rpm for 20 minutes at RT. The band at the serum/Lymphoprep interface was carefully removed. The collected cells were washed with PBS and re-suspended at 4×10^6/ml in growth medium with HI-autologous serum. PBMCs were seeded at 0.4×10^6 cells/well in flat-bottomed 96 well plates in the presence of 10 ug/ml Timothy Grass antigen (Alk Abello) and test compounds at appropriate concentrations in a total volume of 200 ul.
(§10) Plates were incubated at 37° C. in 5% CO2 for up to 6 days. The cell medium from each well was harvested and stored at −20° C. prior to analysis.

IL-13 = test: Allergen-driven cytokine assay using fresh human PBMCs from atopic volunteers (IL-13); type: cell-based; settings: at 0.04 μM, compared to the allergen control; PBMCs from three allergic donors, Timothy Grass antigen
Experimental: as §6, §7, §8, §9, §10

Row | Structure (SMILES) | EC50 (Interferon-α [1]) [nM] | EC50 (IFN-α) [nM] | EC50 (TNF-α) [nM] | mean serum levels of Interferon-α (Interferon-α [2]) [pg/mL] | reduction of production of Th2 cytokine IL-5 (IL-5) [%] | reduction of production of Th2 cytokine IL-13 (IL-13) [%]
1 | CCCCOc1nc(N)c2[nH]c(=O)n(CCCCCN3CCCCCCC3)c2n1 [Example 12, 6-Amino-2-(butyloxy)-9-[5-(hexahydro-1(2H)-azocinyl)pentyl]-7,9-dihydro-8H-purin-8-one] | < 3160 | ≤ 10 | > 1000 | – | – | –
2 | CCCCOc1nc(N)c2[nH]c(=O)n(CCCCCCN3CCCC3)c2n1 [Example 13, 6-Amino-2-(butyloxy)-9-[6-(1-pyrrolidinyl)hexyl]-7,9-dihydro-8H-purin-8-one] | < 3160 | ≤ 1 | ≥ 316 | – | – | –
3 | CCCCOc1nc(N)c2[nH]c(=O)n(CCCCCCN3CCCCC3)c2n1 [Example 14, 6-Amino-2-(butyloxy)-9-[6-(1-piperidinyl)hexyl]-7,9-dihydro-8H-purin-8-one] | < 3160 | ≤ 10 | > 1000 | – | – | –
4 | CCCCOc1nc(N)c2[nH]c(=O)n(CCCCCCN3CCCCCC3)c2n1 [Example 15, 6-Amino-2-(butyloxy)-9-[6-(hexahydro-1H-azepin-1-yl)hexyl]-7,9-dihydro-8H-purin-8-one] | < 3160 | ≤ 1 | ≥ 316 | – | – | –
5 | CCCCNc1nc(N)c2[nH]c(=O)n(CCCCN3CCCCCC3)c2n1 [Example 18, 6-Amino-2-(butylamino)-9-[4-(hexahydro-1H-azepin-1-yl)butyl]-7,9-dihydro-8H-purin-8-one] | < 3160 | ≤ 10 | > 1000 | – | – | –
6 | CCC[C@H](C)Oc1nc(N)c2[nH]c(=O)n(CCCCN3CCCCC3)c2n1 [Example 20, 6-Amino-2-{[(1S)-1-methylbutyl]oxy}-9-[4-(1-piperidinyl)butyl]-7,9-dihydro-8H-purin-8-one] | < 3160 | ≤ 1 | ≥ 316 | – | – | –
7 | CCC[C@H](C)Oc1nc(N)c2[nH]c(=O)n(CCCCN3CCCCCC3)c2n1 [Example 21, 6-Amino-9-[4-(hexahydro-1H-azepin-1-yl)butyl]-2-{[(1S)-1-methylbutyl]oxy}-7,9-dihydro-8H-purin-8-one] | < 3160 | ≤ 1 | ≥ 316 | 20326 | – | –
8 | CCC[C@H](C)Oc1nc(N)c2[nH]c(=O)n(CCCCCN3CCCCC3)c2n1 [Example 22, 6-Amino-2-{[(1S)-1-methylbutyl]oxy}-9-[5-(1-piperidinyl)pentyl]-7,9-dihydro-8H-purin-8-one] | < 3160 | ≤ 1 | ≥ 316 | 21029 | ≥ 50 | ≥ 50
9 | CCC[C@H](C)Oc1nc(N)c2[nH]c(=O)n(CCCCCN3CCCCCC3)c2n1 [Example 23, 6-Amino-9-[5-(hexahydro-1H-azepin-1-yl)pentyl]-2-{[(1S)-1-methylbutyl]oxy}-7,9-dihydro-8H-purin-8-one] | < 3160 | ≤ 1 | ≥ 316 | – | – | –
